Source: patent publication US20220409560A1, “Pharmaceutical Compositions, Formulations And Methods For The Treatment Of Retinoblastoma” (Oxular Limited, priority 2019, published 2022)
pEC50: −log10 of the molar value. Like-named read-outs stand apart in the source and are kept apart here.

Legend:
Y79 cell line = assay: Retinoblastoma cell proliferation inhibition assay (Cell Titer Glo, 72 hour incubation); assay type: cell-based, human
[1] = test system: WERI cell line (WERI-Rb1); assay: as above; assay type: cell-based, human
BJ cell line [2] = settings: BJ cell line (normal fibroblast), 72 hour incubation
[3] = Ocular pharmacokinetic study, suprachoroidal administration of micelle formulation, tissue concentration by LCMS; assay type: in vivo, New Zealand White rabbits; settings: 25 μg dose, micellular formulation, rabbit
Description: Both solutions were filter sterilized by passage through a sterile 0.2 micron nylon syringe filter into a sterile vial to produce a sterile formulation. The mixture was vortex mixed to produce a micelle suspension. […] A flexible catheter with 250 micron OD and 140 micron ID was surgically introduced into the suprachoroidal space in the anterior region of the eye at the pars plana. The catheter was advanced posteriorly toward the posterior region of the suprachoroidal space. The catheter was configured to conduct light and provided illumination of the catheter tip and shaft to determine the catheter position and configuration by trans-scleral visualization. The illuminated tip of the catheter was used to position the catheter in the posterior region of the suprachoroidal space. The illuminated shaft of the catheter was used to manipulate and position the catheter to direct the injection toward the posterior region of the space. […] The eyes were examined by slit lamp in the anterior segment and by indirect ophthalmoscopy in the posterior segment prior to euthanasia for each time point at 1, 3, 7, 14 days post administration.

[4] = test system: Human retinoblastoma tumour cells, Y79; assay: Retinoblastoma in vivo model, retinoblastoma cell area on the retina by histology; design: species or system rabbits; settings: for retinoblastoma cell areas from both H&E staining and antibody staining: culled at 5 weeks; for reduction in retinoblastoma cells in the eyes as compared to sham: p<0.01
Experimental: Human retinoblastoma tumour cells, Y79 (ATCC@ HTB-18), were grown in media consisting of RPMI 1640 containing 20% FBS, L-glutamine 200 mM (100×), penicillin/streptomycin 5,000 U/ml and amphotericin B 250 μg/ml, to a target suspension density of 3×10^5 cells/flask in 20 ml of media in a T75 flask. Thirty-two eyes in 16 immunosuppressed rabbits were inoculated with 200,000 cells in 30 μl of serum free media to the posterior retinal surface by intravitreal injection. The animals were studied in 4 groups of 8 eight eyes. Two groups were administered topotecan prepared in 30 μl of sterile saline injected intravitreally through a 29 gauge needle in the posterior region of the vitreous cavity near the tumour cells. One topotecan group was administered a 10 μg dose and a second group administered a 50 μg dose. The topotecan groups were administered the active agent formulation at 2, 3 and 4 weeks after tumour cell inoculation. […] A fourth group was treated with a sham injection of 30 μl sterile saline through a 29 gauge needle in the posterior region of the vitreous near the tumour cells at 2, 3 and 4 weeks after tumour cell inoculation. All animals were culled at 5 weeks to allow processing of the retina and retinoblastoma tumour cells on the retina for histological examination. Macro photography of the flat mounted retinae recorded tumour cell survival on the retinae and then representative sections were removed for fixation and subsequent processing for histology. All samples were cut at 5 μm and stained by H&E and replicate slides stained with human mitochondrial marker antibody to positively identify the human retinoblastoma cells. Slides were then scanned using a slide scanner (Histech or Hamamatsu S360) and retinoblastoma cell area on the retina quantified using CaseViewer software.
Representative histology images are shown in FIG. 4 with arrows indicating the retinoblastoma cells on the retina.

BJ cell line [5] = assay: cells; settings: Homo sapiens, 72 h

Cc1cc2c(C(=O)NC[C@H](C)c3ccccc3)c(O)c(O)cc2c(O)c1-c1c(C)cc2c(C(=O)NC[C@H](C)c3ccccc3)c(O)c(O)cc2c1O [Sabutoclax]
pEC50 (Y79 cell line): 6.50 | pEC50 [1]: 6.68 | pEC50 (BJ cell line [2]): < 5.44

CC(C)c1ccccc1Cc1cc(C(=O)Nc2ccc(S(=O)(=O)c3ccccc3C(C)(C)C)cc2)c(O)c(O)c1O [TW-37]
pEC50 (Y79 cell line): 6.47 | choroid concentration at 14 days [3]: near baseline | level of TW-37 in the vitreous [3]: relatively low levels | retina concentration at 14 days [3]: near baseline | time of peak concentration in the choroid [3]: 3 days | time of peak concentration in the retina [3]: 7 days | tissue exposure of TW-37 to the target retina after a single administration [3]: 14 days | pEC50 [1]: 6.56 | pEC50 (BJ cell line [2]): < 5.06 | retinoblastoma cell areas from both H&E staining and antibody staining ([4]; 10 μg in DMSO intravitreal at 3 and 4 weeks after inoculation): lower compared to sham | reduction in retinoblastoma cells in the eyes as compared to sham ([4]; 10 μg intravitreal at 3 and 4 weeks): statistically significant reduction

CC[C@@]1(O)C(=O)OCc2c1cc1n(c2=O)Cc2cc3c(CN(C)C)c(O)ccc3nc2-1 [Topotecan]
pEC50 (Y79 cell line; Homo sapiens): 7.16 | pEC50 ([1]; Homo sapiens): 7.41 | pEC50 (BJ cell line [5]): < 5.59 | retinoblastoma cell areas from both H&E staining and antibody staining ([4]; 10 μg intravitreal at 2, 3 and 4 weeks after inoculation): lower compared to sham | retinoblastoma cell areas from both H&E staining and antibody staining ([4]; 50 μg intravitreal at 2, 3 and 4 weeks after inoculation): lower compared to sham | reduction in retinoblastoma cells in the eyes as compared to sham ([4]; high dose (50 μg) intravitreal): statistically significant reduction

O=C(CCCCCCC(=O)Nc1ccccc1)NO [Vorinostat]
pEC50 (BJ cell line [5]): < 4.26
